The values below come from patent US20230265151A1, “GIP/GLP1 CO-AGONIST COMPOUNDS” (priority 2020, published 2023).

Format in all cases: cell-based
In one test the target is hGLP-1R (Homo sapiens, UniProt P43220). In words: Functional cAMP formation (HTRF) in HEK-293 clonal cells expressing hGLP-1R, 0.1% bovine casein, without or with 1.0% human serum albumin. Set-up: expressed in transfected cells. Particulars: for Emax: percent of maximal response to GLP-1(7-36)NH2. A digest of the protocol:
(§1)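 Readings of the HTRF 665/620 nm ratio, which falls as cAMP rises, were converted to nM cAMP using a standard curve after 30 min peptide exposure at 37° C.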

For a further test, the target named is T1, hGCGR (Homo sapiens, UniProt P47871).
T1 construct: expressed in transfected cells
T1 sequence (P47871 26-477): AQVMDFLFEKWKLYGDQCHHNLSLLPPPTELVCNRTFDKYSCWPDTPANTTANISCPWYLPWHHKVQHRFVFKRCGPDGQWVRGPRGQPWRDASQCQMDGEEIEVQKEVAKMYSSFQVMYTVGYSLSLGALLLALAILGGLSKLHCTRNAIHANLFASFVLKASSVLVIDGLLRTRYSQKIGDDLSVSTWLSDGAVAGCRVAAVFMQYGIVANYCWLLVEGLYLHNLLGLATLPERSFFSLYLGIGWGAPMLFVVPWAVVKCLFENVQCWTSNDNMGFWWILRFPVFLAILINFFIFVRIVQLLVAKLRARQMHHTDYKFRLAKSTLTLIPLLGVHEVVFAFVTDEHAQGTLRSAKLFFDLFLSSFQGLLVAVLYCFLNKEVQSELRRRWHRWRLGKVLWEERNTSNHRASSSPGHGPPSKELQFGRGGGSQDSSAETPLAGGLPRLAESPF
In words: Functional cAMP formation (HTRF) in HEK-293 clonal cells expressing hGCGR, 0.1% bovine casein, without or with 1.0% human serum albumin. A digest of the protocol:
as §1

Another test addresses T2, hGIPR (Homo sapiens, UniProt P48546).
T2 construct: expressed in transfected cells
T2 sequence (P48546 22-466): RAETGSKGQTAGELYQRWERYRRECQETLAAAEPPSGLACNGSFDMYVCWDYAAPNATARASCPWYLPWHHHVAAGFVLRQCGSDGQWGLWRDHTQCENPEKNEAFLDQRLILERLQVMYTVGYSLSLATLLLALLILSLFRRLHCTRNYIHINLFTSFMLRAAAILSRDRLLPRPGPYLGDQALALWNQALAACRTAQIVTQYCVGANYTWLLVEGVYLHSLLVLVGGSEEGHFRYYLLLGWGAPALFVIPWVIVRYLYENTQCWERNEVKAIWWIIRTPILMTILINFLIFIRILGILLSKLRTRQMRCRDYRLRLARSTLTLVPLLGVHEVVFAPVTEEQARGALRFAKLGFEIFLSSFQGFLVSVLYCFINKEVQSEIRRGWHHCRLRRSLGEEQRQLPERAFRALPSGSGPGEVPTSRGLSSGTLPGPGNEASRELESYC
In words: Functional cAMP formation (HTRF) in HEK-293 clonal cells expressing hGIPR, 0.1% bovine casein, without or with 1.0% human serum albumin. The method, boiled down: as §1

[1] abbreviates: HEK293, read-out: hGLP-1R Emax, % ± SEM, cAMP, 37° C., 0.1% bovine casein and 1.0% human serum albumin.
Where [2] appears, read: hGLP-1R EC50, nM (SEM, n), cAMP, 37° C., 0.1% bovine casein (no human serum albumin), geometric mean.
Setting [3] is: hGCGR EC50, nM (SEM, n), cAMP, 37° C., 0.1% bovine casein (no human serum albumin), geometric mean.
The mark [4] stands for this setting: hGCGR EC50, nM (SEM, n), cAMP, 37° C., 0.1% bovine casein and 1.0% human serum albumin, geometric mean (SEM, n).
The mark [5] stands for this setting: HEK293, read-out: hGIPR Emax, % ± SEM, cAMP, 37° C., 0.1% bovine casein and 1.0% human serum albumin, percent of maximal response to GIP(1-42)NH2.
Where [6] appears, read: HEK293, read-out: hGIPR Emax, % ± SEM, cAMP, 37° C., 0.1% bovine casein, percent of maximal response to GIP(1-42)NH2, arithmetic mean.
[7] abbreviates: hGIPR EC50, nM (SEM, n), cAMP, 37° C., 0.1% bovine casein (no human serum albumin), geometric mean.
Where [8] appears, read: hGIPR EC50, nM (SEM, n), cAMP, 37° C., 0.1% bovine casein and 1.0% human serum albumin, geometric mean (SEM, n).

SMILES strings stand for the structures. Where two headings read alike, the source gives them in different places.

hGLP-1R, sequence (P43220 24-463): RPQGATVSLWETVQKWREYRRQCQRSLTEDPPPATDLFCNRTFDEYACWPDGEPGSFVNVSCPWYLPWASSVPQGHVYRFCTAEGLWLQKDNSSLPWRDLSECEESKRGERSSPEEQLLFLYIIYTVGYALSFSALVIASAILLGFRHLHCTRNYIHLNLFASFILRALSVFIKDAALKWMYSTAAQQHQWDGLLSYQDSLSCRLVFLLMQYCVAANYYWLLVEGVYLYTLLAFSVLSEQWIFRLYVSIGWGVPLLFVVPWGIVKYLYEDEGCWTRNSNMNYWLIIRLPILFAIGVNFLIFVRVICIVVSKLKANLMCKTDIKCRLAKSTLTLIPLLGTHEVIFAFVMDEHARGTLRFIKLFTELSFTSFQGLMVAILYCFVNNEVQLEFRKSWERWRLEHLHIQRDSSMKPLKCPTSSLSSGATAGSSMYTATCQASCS

On to `CC[C@H](C)[C@H](NC(=O)[C@H](CC(C)C)NC(=O)[C@](C)(Cc1ccc(O)cc1)NC(=O)[C@@H](CCC(=O)O)NC(=O)[C@@H](NC(=O)[C@H](Cc1ccccc1)NC(=O)[C@H](CCCN)NC(=O)C(C)(C)NC(=O)[C@H](CCC(N)=O)NC(=O)[C@H](C)NC(=O)[C@H](CCCCNC(=O)COCCOCCNC(=O)COCCOCCNC(=O)CC[C@H](NC(=O)CCCCCCCCCOc1ccc(C(=O)O)cc1)C(=O)O)NC(=O)[C@H](CCCN)NC(=O)[C@H](CC(=O)O)NC(=O)[C@H](CC(C)C)NC(=O)[C@](C)(CC(C)C)NC(=O)[C@@H](NC(=O)C(C)(C)NC(=O)[C@@H](NC(=O)[C@H](CC(=O)O)NC(=O)[C@H](CO)NC(=O)[C@@H](NC(=O)[C@](C)(Cc1ccccc1F)NC(=O)[C@@H](NC(=O)CNC(=O)[C@H](CCC(=O)O)NC(=O)C(C)(C)NC(=O)[C@@H](N)Cc1ccc(O)cc1)[C@@H](C)O)[C@@H](C)O)C(C)C)[C@@H](C)CC)[C@@H](C)CC)C(=O)N[C@@H](CCCCNC(=O)COCCOCCNC(=O)COCCOCCNC(=O)CC[C@H](NC(=O)CCCCCCCCCOc1ccc(C(=O)O)cc1)C(=O)O)C(=O)NCC(=O)NCC(=O)N1CCC[C@H]1C(=O)N[C@@H](CO)C(=O)N[C@@H](CO)C(=O)NCC(=O)N[C@@H](C)C(=O)N1CCC[C@H]1C(=O)N1CCC[C@H]1C(=O)N1CCC[C@H]1C(=O)N[C@@H](CO)C(N)=O` [Example 353], for which the Emax at hGLP-1R (setting [1]) came out at 92.5%; on hGLP-1R (HEK293, read-out: hGLP-1R Emax, % ± SEM, cAMP, 37° C., 0.1% bovine casein, arithmetic mean) it was 98%; at hGIPR (setting [5]), 84.8%; on hGIPR (setting [6]), 98.2%. Further, the EC50 at hGLP-1R (setting [2]) was 0.203 nM; on hGCGR (setting [3]), greater than 9950 nM; at hGCGR (setting [4]), greater than 9950 nM; at hGIPR (setting [7]), 0.0249 nM.

On to `CC[C@H](C)[C@H](NC(=O)[C@H](CC(C)C)NC(=O)[C@](C)(Cc1ccc(O)cc1)NC(=O)[C@@H](CCC(=O)O)NC(=O)[C@@H](NC(=O)[C@H](Cc1ccccc1)NC(=O)[C@H](CCCCNC(=O)COCCOCCNC(=O)COCCOCCNC(=O)CCCCCCCCCOc1ccc(C(=O)O)cc1)NC(=O)C(C)(C)NC(=O)[C@H](CCC(N)=O)NC(=O)[C@H](C)NC(=O)[C@H](CCCCNC(=O)COCCOCCNC(=O)COCCOCCNC(=O)CCCCCCCCCOc1ccc(C(=O)O)cc1)NC(=O)[C@H](CCCN)NC(=O)[C@H](CC(=O)O)NC(=O)[C@H](CC(C)C)NC(=O)[C@](C)(CC(C)C)NC(=O)[C@@H](NC(=O)C(C)(C)NC(=O)[C@@H](NC(=O)[C@H](CC(=O)O)NC(=O)[C@H](CO)NC(=O)[C@@H](NC(=O)[C@](C)(Cc1ccccc1F)NC(=O)[C@@H](NC(=O)CNC(=O)[C@H](CCC(=O)O)NC(=O)C(C)(C)NC(=O)[C@@H](N)Cc1ccc(O)cc1)[C@@H](C)O)[C@@H](C)O)C(C)C)[C@@H](C)CC)[C@@H](C)CC)C(=O)N[C@@H](CCC(=O)O)C(=O)NCC(=O)NCC(=O)N1CCC[C@H]1C(=O)N[C@@H](CO)C(=O)N[C@@H](CO)C(=O)NCC(=O)N[C@@H](C)C(=O)N1CCC[C@H]1C(=O)N1CCC[C@H]1C(=O)N1CCC[C@H]1C(=O)N[C@@H](CO)C(N)=O` [Example 394], for which the Emax is 96.8% at hGLP-1R (setting [1]), 84.6% on hGIPR (setting [5]) and 97.7% at hGIPR (setting [6]). Besides, the concentration for a half-maximal effect (EC50) at hGLP-1R (setting [2]) is 0.223 nM; at hGLP-1R (hGLP-1R EC50, nM (SEM, n), cAMP, 37° C., 0.1% bovine casein and 1.0% human serum albumin, geometric mean (SEM, n)) it was 5.83 nM; on hGCGR (setting [3]), greater than 9950 nM; on hGCGR (setting [4]), greater than 9950 nM; at hGIPR (setting [7]), 0.0179 nM; on hGIPR (setting [8]), 1.38 nM.

For `CC[C@H](C)[C@H](NC(=O)[C@H](CCCN)NC(=O)[C@H](CC(=O)O)NC(=O)[C@H](CC(C)C)NC(=O)[C@](C)(CC(C)C)NC(=O)[C@@H](NC(=O)[C@H](CO)NC(=O)[C@H](Cc1ccncc1)NC(=O)[C@H](CC(=O)O)NC(=O)[C@H](CO)NC(=O)[C@@H](NC(=O)[C@](C)(Cc1ccccc1F)NC(=O)[C@@H](NC(=O)CNC(=O)[C@H](CCC(=O)O)NC(=O)C(C)(C)NC(=O)[C@@H](N)Cc1ccc(O)cc1)[C@@H](C)O)[C@@H](C)O)[C@@H](C)CC)C(=O)N[C@@H](C)C(=O)N[C@@H](CCC(N)=O)C(=O)NC(C)(C)C(=O)N[C@@H](CCC(=O)O)C(=O)N[C@@H](Cc1ccccc1)C(=O)N[C@H](C(=O)N[C@@H](CCCCNC(=O)COCCOCCNC(=O)COCCOCCNC(=O)CC[C@H](NC(=O)CCCCCCCCCCCCC(=O)O)C(=O)O)C(=O)N[C@@](C)(Cc1ccc(O)cc1)C(=O)N[C@@H](CC(C)C)C(=O)N[C@H](C(=O)N[C@@H](CCC(=O)O)C(=O)NCC(=O)NCC(=O)N[C@@H](CCCCNC(=O)COCCOCCNC(=O)COCCOCCNC(=O)CC[C@H](NC(=O)CCCCCCCCCCCCC(=O)O)C(=O)O)C(=O)N[C@@H](CO)C(=O)N[C@@H](CO)C(=O)NCC(=O)N[C@@H](C)C(=O)N1CCC[C@H]1C(=O)N1CCC[C@H]1C(=O)N1CCC[C@H]1C(=O)N[C@@H](CO)C(N)=O)[C@@H](C)CC)[C@@H](C)CC` [Example 71], the EC50 is 43.7 nM on hGLP-1R (0.1% bovine casein and 1.0% human serum albumin, 37° C., geometric mean, read-out: hGLP-1R EC50, nM (SEM, n)); 0.246 nM at hGLP-1R (cAMP, incubated at 37° C., 0.1% bovine casein (no human serum albumin), geometric mean, read-out: hGLP-1R EC50, nM (SEM, n)); greater than 9950 nM at hGCGR (0.1% bovine casein and 1.0% human serum albumin, 37° C., geometric mean, read-out: hGCGR EC50, nM (SEM, n)); greater than 9950 nM at hGCGR (cAMP, incubated at 37° C., 0.1% bovine casein (no human serum albumin), geometric mean, read-out: hGCGR EC50, nM (SEM, n)); 3.07 nM at hGIPR (0.1% bovine casein and 1.0% human serum albumin, 37° C., geometric mean, read-out: hGIPR EC50, nM (SEM, n)). Further, the Emax is 100% on hGLP-1R (HEK293, 0.1% bovine casein and 1.0% human serum albumin, 37° C., read-out: hGLP-1R Emax, % ± SEM); 93.8 ± 3.59% at hGIPR (HEK293, percent of maximal response to GIP(1-42)NH2, 37° C., 0.1% bovine casein, arithmetic mean, read-out: hGIPR Emax, % ± SEM).

As to `CC[C@H](C)[C@H](NC(=O)[C@H](CC(C)C)NC(=O)[C@](C)(Cc1ccc(O)cc1)NC(=O)[C@@H](CCC(=O)O)NC(=O)[C@@H](NC(=O)[C@H](Cc1ccccc1)NC(=O)[C@H](CCC(=O)O)NC(=O)C(C)(C)NC(=O)[C@H](CCC(N)=O)NC(=O)[C@H](C)NC(=O)[C@H](CCCCNC(=O)COCCOCCNC(=O)COCCOCCNC(=O)CCCCCCCCCOc1ccc(C(=O)O)cc1)NC(=O)[C@H](CCCN)NC(=O)[C@H](CC(=O)O)NC(=O)[C@H](CC(C)C)NC(=O)[C@](C)(CC(C)C)NC(=O)[C@@H](NC(=O)C(C)(C)NC(=O)[C@H](Cc1ccc(O)cc1)NC(=O)[C@H](CC(=O)O)NC(=O)[C@H](CO)NC(=O)[C@@H](NC(=O)[C@](C)(Cc1ccccc1F)NC(=O)[C@@H](NC(=O)CNC(=O)[C@H](CCC(=O)O)NC(=O)C(C)(C)NC(=O)[C@@H](N)Cc1ccc(O)cc1)[C@@H](C)O)[C@@H](C)O)[C@@H](C)CC)[C@@H](C)CC)C(=O)N[C@@H](CCCCNC(=O)COCCOCCNC(=O)COCCOCCNC(=O)CCCCCCCCCOc1ccc(C(=O)O)cc1)C(=O)NCC(=O)NCC(=O)N1CCC[C@H]1C(=O)N[C@@H](CO)C(=O)N[C@@H](CO)C(=O)NCC(=O)N[C@@H](C)C(=O)N1CCC[C@H]1C(=O)N1CCC[C@H]1C(=O)N1CCC[C@H]1C(=O)N[C@@H](CO)C(N)=O` [Example 396], the Emax at hGLP-1R (setting [1]) was 94.4%; at hGIPR (setting [5]), 67.1%; at hGIPR (setting [6]), 96.2%. Besides, the half-maximal effective concentration (EC50) at hGLP-1R (setting [2]) was 0.291 nM; on hGCGR (setting [3]), greater than 9950 nM; at hGCGR (setting [4]) it was greater than 9950 nM; at hGIPR (setting [7]) it was 0.0113 nM; on hGIPR (setting [8]), 0.595 nM.
